Where two headings read alike, the source gives them in different places.
How the values were obtained:
RSV-A2-GFP virus = assay: microbe, parasite or virus in culture; type: cell-based, Human Respiratory Syncytial Virus
Procedure, shortened: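 IC50 (GFP-expressing cell counts by Acumen imaging) and CC50 (same-well CellTiter-Glo) were obtained by 4-parameter logistic fitting. Compounds were tested in 10-point 3-fold series for 96 h at 37° C, 5% CO2. Thawed Calu-1 ARF cells were infected at MOI 1.2 with GFP-reporter RSV-A2 in 2% FBS DMEM.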

hMPV-GFP virus = assay: microbe, parasite or virus in culture; type: cell-based, human metapneumovirus
Procedure, shortened: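 Antiviral IC50 was derived from imaging counts of GFP-expressing cells, with CC50 from a same-well CellTiter-Glo read, both by 4-parameter logistic fitting. VERO cells plus hMPV-GFP (MOI 1.25) were exposed 48 h at 37 °C to 10-point 3-fold compound dilutions (typical final 40,300–2 nM).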

[1] = human respiratory syncytial virus, Calu-1, 96 h, read-out: RSV EC50, Calu-1 cells infected with RSV-A2-GFP, 96 hrs, GFP-expressing cells counted
[2] = human metapneumovirus, Vero, 48 h, read-out: hMPV EC50, VERO cells infected with hMPV-GFP, 48 hrs, GFP-expressing cells counted
[3] = Calu-1 cells infected with RSV-A2-GFP, 96 hrs, GFP-expressing cells counted, read-out: RSV EC50
[4] = VERO cells infected with hMPV-GFP, 48 hrs, GFP-expressing cells counted, read-out: hMPV EC50

| SMILES | EC50 (RSV-A2-GFP virus; [1]) | EC50 (hMPV-GFP virus; [2]) | EC50 (RSV-A2-GFP virus; [3]) | EC50 (hMPV-GFP virus; [4]) |
| --- | --- | --- | --- | --- |
| Cc1nc(-c2ncccn2)sc1C(=O)N1C[C@@H]2[C@H](C1)[C@H]2Oc1cc(C(C)(C)N)cc(Cc2ccc(F)cc2)n1 [Example 126, ((1R,5S,6s)-6-((4-(2-aminopropan-2-yl)-6-(4-fluorobenzyl)pyridin-2-yl)oxy)-3-azabicyclo[3.1.0]hexan-3-yl)(4-methyl-2-(pyrimidin-2-yl)thiazol-5-yl)methanone] | < 10 nM | > 100 nM | – | – |
| Cc1nn(-c2ncccn2)cc1C(=O)N1C[C@@H]2[C@H](C1)[C@H]2Oc1cc(C(C)(C)N)cc(N2CCC(C)(C)CC2C)n1 (stereo partly drawn) [Example 127A, ent-((1R,5S,6s)-6-((4-(2-aminopropan-2-yl)-6-(2,4,4-trimethylpiperidin-1-yl)pyridin-2-yl)oxy)-3-azabicyclo[3.1.0]hexan-3-yl)(3-methyl-1-(pyrimidin-2-yl)-1H-pyrazol-4-yl)methanone] | – | – | < 10 nM | > 100 nM |
| Cc1nn(-c2ncccn2)cc1C(=O)N1C[C@@H]2[C@H](C1)[C@H]2Oc1cc(C(C)(C)N)cc(NC(C)C2CCCC2)n1 (stereo partly drawn) [Example 128A, ent-((1R,5S,6s)-6-((4-(2-aminopropan-2-yl)-6-((1-cyclopentylethyl)amino)pyridin-2-yl)oxy)-3-azabicyclo[3.1.0]hexan-3-yl)(3-methyl-1-(pyrimidin-2-yl)-1H-pyrazol-4-yl)methanone] | – | – | < 10 nM | > 100 nM |
| Cc1nn(-c2ncccn2)cc1C(=O)N1C[C@@H]2[C@H](C1)[C@H]2Oc1cc(C(C)(C)N)cc(N2CCC(C(F)(F)F)CC2C)n1 (stereo partly drawn) [Example 129A, ent-((1R,5S,6s)-6-((4-(2-aminopropan-2-yl)-6-(2-methyl-4-(trifluoromethyl)piperidin-1-yl)pyridin-2-yl)oxy)-3-azabicyclo[3.1.0]hexan-3-yl)(3-methyl-1-(pyrimidin-2-yl)-1H-pyrazol-4-yl)methanone] | – | – | < 10 nM | > 100 nM |
| CC(C)(N)c1cc(O[C@H]2[C@@H]3CN(C(=O)c4cn(-c5ncccn5)nc4Cn4nccn4)C[C@@H]32)nc(-c2ccc(F)cc2)c1 [Example 130, (3-((2H-1,2,3-triazol-2-yl)methyl)-1-(pyrimidin-2-yl)-1H-pyrazol-4-yl)((1R,5S,6s)-6-((4-(2-aminopropan-2-yl)-6-(4-fluorophenyl)pyridin-2-yl)oxy)-3-azabicyclo[3.1.0]hexan-3-yl)methanone] | < 10 nM | > 100 nM | – | – |
| CC(C)(N)c1cc(O[C@H]2[C@@H]3CN(C(=O)c4cn(-c5ncccn5)nc4CCF)C[C@@H]32)nc(-c2ccc(F)cc2)c1 [Example 131, ((1R,5S,6s)-6-((4-(2-aminopropan-2-yl)-6-(4-fluorophenyl)pyridin-2-yl)oxy)-3-azabicyclo[3.1.0]hexan-3-yl)(3-(2-fluoroethyl)-1-(pyrimidin-2-yl)-1H-pyrazol-4-yl)methanone] | < 10 nM | > 100 nM | – | – |
| CC(C)(N)c1cc(O[C@H]2[C@@H]3CN(C(=O)c4cn(-c5ncccn5)nc4CC(F)F)C[C@@H]32)nc(-c2ccc(F)cc2)c1 [Example 132, ((1R,5S,6s)-6-((4-(2-aminopropan-2-yl)-6-(4-fluorophenyl)pyridin-2-yl)oxy)-3-azabicyclo[3.1.0]hexan-3-yl)(3-(2,2-difluoroethyl)-1-(pyrimidin-2-yl)-1H-pyrazol-4-yl)methanone] | < 10 nM | > 100 nM | – | – |

Source: patent publication US12643882B2, “Inhibitors of human respiratory syncytial virus and metapneumovirus” (priority 2022, dated 2026)
